This note sets out measurements from paper PMC9295122, “Sialic Acid Derivatives Inhibit SiaT Transporters and Delay Bacterial Growth” (ACS Chemical Biology, 2022).

Read-outs that look alike come from different tables or passages of the source.

The ΔTm is the shift of the melting midpoint relative to a reference.

Test [1] addresses SaSiaT (Staphylococcus aureus, UniProt A0A0H2XJ46). The experiment in a line: nanoDSF thermal shift assay, SaSiaT. It counts as binding. The following applies: for Average 1 / Average 2 / Average 3 / Replicate 1 / Replicate 2 / Replicate 3: SaSiaT Tm; for Average 1: average of experiment 1; for Average 2: average of experiment 2; for Average 3: average of experiment 3; for Replicate 1: experiment 1, second capillary; for Replicate 1 / Replicate 2 / Replicate 3 / Tm 1 / Tm2 / Tm 3 / Overall average (Tm): 1.25 mM; for Replicate 2: experiment 2, second capillary; for Replicate 3: experiment 3, second capillary; for Tm 1 / Tm2 / Tm 3 / Overall average (Tm): SaSiaT; for Tm 1: experiment 1, first capillary; for Tm2: experiment 2, first capillary; for Tm 3: experiment 3, first capillary; for Overall average (Tm): three experiments. On the procedure:
(§1) Nano-differential scanning fluorimetry (nanoDSF) is a high-throughput method that relies on the thermal stabilization of the folded protein state by a bound ligand.[33]
(§2) The melting points of protein–inhibitor complexes were measured on a Prometheus NT.48 instrument from NanoTemper Technologies. Solutions containing the protein at 2 μM in phosphate buffered saline with 0.0174% (w/v) dodecylmaltoside (DDM) and the ligand at 1.25 mM were loaded onto standard capillaries by NanoTemper. The temperature was increased from 25 to 95 °C at a ramp rate of 1 °C/min. The fluorescence was recorded at 330 and 350 nm and as a ratio of the two wavelengths.
(§3) The intensity ratio and its first derivative were calculated using manufacturer’s software (PR.ThermControl, version 2.1.2).
(§4) The melting temperatures have been measured in 3 separate experiments. In each experiment, two capillaries were included per compound, having therefore 2 technical replicates per experiment. In the table all data is presented. Tm1 and Replicate 1 represent the two replicates of the first experiment. Average 1 is the average between Tm 1 and Replicate 1. ΔTm 1 is the thermal shift when compared to the Tm of Neu5Ac. This is calculated from Average 1. The ΔTm presented in the article are the ΔTm average overall, which represent the overall average of the averages from the three experiments. The standard deviation (SD) is calculated from the […]
A general note: In DSF a fluorescence change marks the thermal transition of the protein.

For test [2], the target named is T1, PmSiaT (Proteus mirabilis, UniProt B4EZY7).
T1 construct: made in house
T1 sequence (B4EZY7 1-496): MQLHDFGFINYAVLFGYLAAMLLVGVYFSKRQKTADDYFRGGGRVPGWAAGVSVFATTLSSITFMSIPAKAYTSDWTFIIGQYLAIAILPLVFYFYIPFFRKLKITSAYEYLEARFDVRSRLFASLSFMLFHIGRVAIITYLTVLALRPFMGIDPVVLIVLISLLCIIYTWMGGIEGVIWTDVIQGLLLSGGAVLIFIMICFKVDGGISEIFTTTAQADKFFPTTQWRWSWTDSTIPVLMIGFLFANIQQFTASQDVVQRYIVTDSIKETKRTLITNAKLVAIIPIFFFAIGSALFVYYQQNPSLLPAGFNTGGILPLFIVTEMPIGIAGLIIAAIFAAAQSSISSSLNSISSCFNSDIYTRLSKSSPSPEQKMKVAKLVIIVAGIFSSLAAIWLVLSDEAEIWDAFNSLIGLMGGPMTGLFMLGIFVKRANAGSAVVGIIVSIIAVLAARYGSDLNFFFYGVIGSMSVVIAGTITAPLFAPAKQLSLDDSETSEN
The experiment in a line: nanoDSF thermal shift assay, PmSiaT. It counts as binding. The note with it: for Average 1 / Average 2 / Average 3 / Replicate 1 / Replicate 2 / Replicate 3: PmSiaT Tm; for Average 1: average of experiment 1; for Average 2: average of experiment 2; for Average 3: average of experiment 3; for Replicate 1: experiment 1, second capillary; for Replicate 2: experiment 2, second capillary; for Replicate 3: experiment 3, second capillary; for Tm 1: experiment 1, first capillary; for Tm2: experiment 2, first capillary; for Tm 3: experiment 3, first capillary; for ΔTm at 1250 µM: read-out: ΔTm average overall. As to the method:
as §1, §2, §3, §4

Setting [3] is: PmSiaT, experiment 1, vs Neu5Ac, read-out: ΔTm 1.
Setting [4] is: PmSiaT, experiment 2, vs Neu5Ac, read-out: ΔTm 2.
Where [5] appears, read: PmSiaT, experiment 3, vs Neu5Ac, read-out: ΔTm 3.
Setting [6] is: PmSiaT, three experiments, 1.25 mM.
Where [7] appears, read: PmSiaT, three experiments, vs Neu5Ac, 1.25 mM.

Sequence of SaSiaT (A0A0H2XJ46 entry or part of it): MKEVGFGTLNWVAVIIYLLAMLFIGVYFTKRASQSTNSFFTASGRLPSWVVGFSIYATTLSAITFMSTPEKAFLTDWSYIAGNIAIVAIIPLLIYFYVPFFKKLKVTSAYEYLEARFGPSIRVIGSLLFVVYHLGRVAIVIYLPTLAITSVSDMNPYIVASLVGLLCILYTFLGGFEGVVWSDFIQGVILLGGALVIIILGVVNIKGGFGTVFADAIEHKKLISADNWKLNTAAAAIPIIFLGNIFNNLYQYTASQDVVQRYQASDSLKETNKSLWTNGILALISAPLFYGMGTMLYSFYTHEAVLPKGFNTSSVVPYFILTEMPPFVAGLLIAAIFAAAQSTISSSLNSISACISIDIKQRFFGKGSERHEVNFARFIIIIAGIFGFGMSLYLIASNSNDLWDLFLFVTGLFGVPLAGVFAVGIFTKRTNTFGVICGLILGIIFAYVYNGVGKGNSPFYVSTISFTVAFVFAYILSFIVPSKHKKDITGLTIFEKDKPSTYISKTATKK

For `O=C(NC1C(O)CC(O)(C(=O)O)OC1C(O)C(O)CO)c1ccccc1` (stereo not drawn) [Compound 6d], in test [1], the “Average 1” value came out at 46.2 °C, the “Average 2” value stood at 45.6 °C, the “Average 3” value came to 46.0 °C and the “Replicate 1” value stood at 46.1 °C. For the same compound, in test [1], the “Replicate 2” value came out at 45.8 °C, the “Replicate 3” value is 45.6 °C, the “Tm 1” value amounted to 46.2 °C and the “Tm2” value is 45.4 °C. For the same compound, in test [1], the “Tm 3” value stood at 46.4 °C and the “Overall average (Tm)” value amounted to 45.9 °C. In test [2], the “Average 1” value amounted to 45.2 °C, the “Average 2” value came to 45.9 °C and the “Average 3” value was found to be 45.7 °C. Further, in test [2] (1.25 mM), the “Replicate 1” value is 45.2 °C, the “Replicate 2” value was determined as 45.9 °C and the “Replicate 3” value turned out to be 45.9 °C. In test [2] (PmSiaT, 1.25 mM), the “Tm 1” value came to 45.1 °C, the Tm2 was 45.8 °C and the “Tm 3” value was 45.5 °C. Further, in test [2] (setting [3]), the ΔTm is -3.8 °C. The ΔTm in test [2] (setting [4]) was -3.3 °C. For the same compound, the ΔTm in test [2] (setting [5]) is -3.6 °C. Further, the Tm average overall in test [2] (setting [6]) stood at 45.6 °C. The ΔTm at 1250 µM in test [2] (setting [7]) was -3.6 °C.
With `O=C(Cc1ccccc1)NC1C(O)CC(O)(C(=O)O)OC1C(O)C(O)CO` (stereo not drawn) [Compound 6e], in test [1], the “Average 1” value was 51.2 °C, the “Average 2” value came out at 51.0 °C, the “Average 3” value came out at 51.4 °C and the “Replicate 1” value is 51.3 °C. In test [1], the “Replicate 2” value is 51.1 °C, the “Replicate 3” value came out at 51.1 °C, the “Tm 1” value was found to be 51.2 °C and the “Tm2” value amounted to 51.0 °C. Besides, in test [1], the “Tm 3” value was 51.8 °C and the “Overall average (Tm)” value turned out to be 51.2 °C. In addition, in test [2], the “Average 1” value was found to be 45.4 °C, the “Average 2” value is 46.2 °C and the “Average 3” value amounted to 46.0 °C. In test [2] (1.25 mM), the “Replicate 1” value is 45.5 °C, the “Replicate 2” value is 46.0 °C and the “Replicate 3” value was determined as 45.9 °C. Besides, in test [2] (PmSiaT, 1.25 mM), the “Tm 1” value was found to be 45.2 °C, the Tm2 worked out at 46.3 °C and the “Tm 3” value stood at 46.1 °C. Also, in test [2] (setting [3]), the ΔTm is -3.6 °C. The ΔTm in test [2] (setting [4]) was -3 °C. Further, the ΔTm in test [2] (setting [5]) was -3.3 °C. Also, in test [2] (setting [6]), the Tm average overall came to 45.8 °C. Moreover, the ΔTm at 1250 µM in test [2] (setting [7]) was -3.3 °C.
On to `O=C(CF)NC1C(O)CC(O)(C(=O)O)OC1C(O)C(O)CO` (stereo not drawn) [Compound 6f], for which, in test [1], the “Average 1” value is 52.0 °C, the “Average 2” value worked out at 51.2 °C, the “Average 3” value stood at 51.9 °C and the “Replicate 1” value stood at 52.0 °C. In addition, in test [1], the “Replicate 2” value was determined as 51.2 °C, the “Replicate 3” value was 51.8 °C, the “Tm 1” value was determined as 52.0 °C and the “Tm2” value is 51.2 °C. Also, in test [1], the “Tm 3” value stood at 52.1 °C and the “Overall average (Tm)” value came to 51.7 °C. Also, in test [2], the “Average 1” value was 47.4 °C, the “Average 2” value was found to be 47.6 °C, the “Average 3” value was determined as 47.4 °C and the ΔTm at 1250 µM was -1.7 °C. In test [2] (1.25 mM), the “Replicate 1” value came out at 47.4 °C, the “Replicate 2” value worked out at 47.6 °C and the “Replicate 3” value was found to be 47.3 °C. In test [2] (PmSiaT, 1.25 mM), the “Tm 1” value is 47.4 °C, the Tm2 stood at 47.7 °C and the “Tm 3” value is 47.4 °C. Besides, the Tm average overall in test [2] (setting [6]) was 47.5 °C.
Regarding `O=C(CCl)NC1C(O)CC(O)(C(=O)O)OC1C(O)C(O)CO` (stereo not drawn) [Compound 6g], in test [1], the “Average 1” value was found to be 49.0 °C, the “Average 2” value was 49.2 °C, the “Average 3” value worked out at 49.3 °C and the “Replicate 1” value came out at 49.0 °C. Further, in test [1], the “Replicate 2” value is 49.0 °C, the “Replicate 3” value came out at 48.9 °C, the “Tm 1” value was 49.0 °C and the “Tm2” value turned out to be 49.4 °C. In test [1], the “Tm 3” value was found to be 49.7 °C and the “Overall average (Tm)” value was found to be 49.2 °C. Further, in test [2], the “Average 1” value was 49.8 °C, the “Average 2” value is 49.9 °C and the “Average 3” value turned out to be 49.5 °C. In test [2] (1.25 mM), the “Replicate 1” value was 49.7 °C, the “Replicate 2” value is 49.9 °C and the “Replicate 3” value was 49.5 °C. Moreover, in test [2] (PmSiaT, 1.25 mM), the “Tm 1” value was 49.9 °C, the Tm2 stood at 49.9 °C and the “Tm 3” value is 49.5 °C. Besides, the ΔTm in test [2] (setting [3]) worked out at 0.8 °C. Further, in test [2] (setting [4]), the ΔTm turned out to be 0.7 °C. Besides, the ΔTm in test [2] (setting [5]) is 0.2 °C. In test [2] (setting [6]), the Tm average overall was found to be 49.7 °C. Further, the ΔTm at 1250 µM in test [2] (setting [7]) worked out at 0.6 °C.
On to `[N-]=[N+]=NCC(=O)N[C@H]1[C@H]([C@H](O)[C@H](O)CO)O[C@@](O)(C(=O)O)C[C@@H]1O` [Compound 6h, 5-azidoacetamido-3,5-dideoxy-D-glycero-α-galacto-non-2-ulopyranosonate, reference compound], for which, in test [1], the “Average 1” value turned out to be 52.8 °C, the “Average 2” value was determined as 52.9 °C, the “Average 3” value is 52.8 °C and the “Replicate 1” value stood at 52.7 °C. Moreover, in test [1], the “Replicate 2” value was determined as 53.0 °C, the “Replicate 3” value came to 52.7 °C, the “Tm 1” value amounted to 52.8 °C and the “Tm2” value came to 52.7 °C. Besides, in test [1], the “Tm 3” value is 52.8 °C and the “Overall average (Tm)” value came out at 52.8 °C. Further, in test [2], the “Average 1” value turned out to be 49.2 °C, the “Average 2” value worked out at 49.0 °C and the “Average 3” value is 49.1 °C. Moreover, in test [2] (1.25 mM), the “Replicate 1” value was 49.2 °C, the “Replicate 2” value was found to be 48.8 °C and the “Replicate 3” value was 49.3 °C. In addition, in test [2] (PmSiaT, 1.25 mM), the “Tm 1” value came out at 49.2 °C, the Tm2 is 49.2 °C and the “Tm 3” value worked out at 49.0 °C. In addition, the ΔTm in test [2] (setting [3]) was -0.1 °C. Also, the ΔTm in test [2] (setting [4]) turned out to be 0.1 °C. Further, the ΔTm in test [2] (setting [5]) was determined as 0 °C. The Tm average overall in test [2] (setting [6]) amounted to 49.1 °C. Moreover, in test [2] (setting [7]), the ΔTm at 1250 µM was determined as 0 °C.
Take `CSCC(O)C(O)C1OC(O)(C(=O)O)CC(O)C1NC(C)=O` (stereo not drawn) [Compound 8a]: in test [1], the “Average 1” value was determined as 51.0 °C, the “Average 2” value came to 49.2 °C, the “Average 3” value worked out at 50.8 °C and the “Replicate 1” value was 50.9 °C. Also, in test [1], the “Replicate 2” value was 49.2 °C, the “Replicate 3” value was 50.4 °C, the “Tm 1” value was 51.0 °C and the “Tm2” value stood at 49.3 °C. In addition, in test [1], the “Tm 3” value was 51.3 °C and the “Overall average (Tm)” value turned out to be 50.3 °C. Besides, in test [2], the “Average 1” value came to 45.9 °C, the “Average 2” value came to 46.2 °C and the “Average 3” value stood at 46.1 °C. Further, in test [2] (1.25 mM), the “Replicate 1” value stood at 45.8 °C, the “Replicate 2” value amounted to 46.0 °C and the “Replicate 3” value worked out at 46.0 °C. In test [2] (PmSiaT, 1.25 mM), the “Tm 1” value was found to be 46.1 °C, the Tm2 was determined as 46.3 °C and the “Tm 3” value is 46.2 °C. Further, the ΔTm in test [2] (setting [3]) was -3.1 °C. In addition, the ΔTm in test [2] (setting [4]) is -3 °C. Moreover, the ΔTm in test [2] (setting [5]) is -3.2 °C. Further, the Tm average overall in test [2] (setting [6]) stood at 46.1 °C. Further, the ΔTm at 1250 µM in test [2] (setting [7]) was -3.1 °C.
